The source of these data is US5906831A, “Controlled release composition forming a reversed micellar (L2) structure or a normal micellar (L1) structure” (GS Development AB, priority 1994, dated 1999).

The conditions of data set [1]: diluted water solution; cited from earlier work.
The conditions of data set [2]: all compositions, in water; cited from earlier work.
The nature of data set [3]: visual inspection of mixtures of monocaproin with polar solvents (miscibility). It is filed as physicochemical. An excerpt: Many galenic formulations of drugs contain polar solvents.

For `CCCCCC(=O)OCC(O)CO` (stereo not drawn) [monocaproin, glycerolmonohexanoate], the “critical micellar concentration (cmc)” value in data set [1] is 160 mM. Also, the “phase behaviour of aqueous system” value in data set [2] is reported as “one single liquid phase at all compositions”. Besides, the Appearance result in data set [3] (5% Ethanol / 5% Propylene Glycol (w/w), 90% monocaproin) is recorded as “clear, low viscous”; in data set [3] (10% (w/w) Ethanol, 90% monocaproin) it was “clear, low viscous”; in data set [3] (10% (w/w) Propylene Glycol, 90% monocaproin), “clear, low viscous”; in data set [3] (90% (w/w) Ethanol, 10% monocaproin) it was “clear, low viscous”.
